Several values for one entry are separate records, joined by “and”; a condition that tells them apart may be missing. Equal entries are not always repeated. Records with an inconclusive call do not appear.
Test system: BDF1 mice, B16 melanoma s.c., survival/tumor T/C
Assay: NCI In Vivo Anticancer Drug Screen. Data for tumor model B16 Melanoma (subcutaneous) in B6D2F1 (BDF1) mice
Procedure: The antitumor activity of compounds was measured in mice bearing transplantable tumors. Survival or tumor size were measured and the results are expressed as the measurement made in the treated group (T) divided by the measurement made in the vehicle treated control group (C). The tumor model used in this assay is B16 Melanoma (subcutaneous) in B6D2F1 (BDF1) mice

[1] = endpoint: median survival time, dose: 40.0 mg/kg/injection, schedule: Q01DX009 (ip), vehicle: Klucel (hydroxypropylcellulose) (HPC), higher = longer survival
[2] = endpoint: median survival time, dose: 80.0 mg/kg/injection, schedule: Q01DX009 (ip), vehicle: Klucel (hydroxypropylcellulose) (HPC), higher = longer survival
[3] = endpoint: median survival time, dose: 160.0 mg/kg/injection, schedule: Q01DX009 (ip), vehicle: Klucel (hydroxypropylcellulose) (HPC), higher = longer survival
[4] = endpoint: median survival time, dose: 400.0 mg/kg/injection, schedule: Q01DX009 (ip), vehicle: Klucel (hydroxypropylcellulose) (HPC), higher = longer survival

CN(C)c1nc(N(C)C)nc(N(C)C)n1
T/C (endpoint: median survival time, dose: 20.0 mg/kg/injection, schedule: Q01DX009 (ip), vehicle: Klucel (hydroxypropylcellulose) (HPC), higher = longer survival): 115 % of control
T/C [1]: 118 % of control
T/C [2]: 111 % of control
T/C [3]: 115 % of control

CN(C)c1ccc(C(=O)c2ccc(N(C)C)cc2)cc1
T/C (endpoint: median survival time, dose: 100.0 mg/kg/injection, schedule: Q01DX009 (ip), vehicle: Klucel (hydroxypropylcellulose) (HPC), higher = longer survival): 113 % of control
T/C (endpoint: median survival time, dose: 200.0 mg/kg/injection, schedule: Q01DX009 (ip), vehicle: Klucel (hydroxypropylcellulose) (HPC), higher = longer survival): 98 % of control
T/C [4]: 110 % of control

COC1/C=C\C=C(/C)C(=O)NC2=CC(=O)C(=O)C(=C2O)CC(C)CC(OC)C(O)C(C)/C=C(\C)C1OC(N)=O (stereo not given)
T/C (endpoint: median survival time, dose: 0.78 mg/kg/injection, schedule: Q01DX005 (ip), vehicle: other, higher = longer survival): 88 % of control
T/C (endpoint: median survival time, dose: 3.13 mg/kg/injection, schedule: Q01DX005 (ip), vehicle: other, higher = longer survival): 114 % of control
T/C (endpoint: median survival time, dose: 6.25 mg/kg/injection, schedule: Q01DX005 (ip), vehicle: other, higher = longer survival): 105 % of control

CSCS(=O)C[C@H](CO)NC(=O)/C=C/c1c(C)[nH]c(=O)[nH]c1=O (stereo not given in full)
T/C (endpoint: median survival time, dose: 0.08 mg/kg/injection, schedule: Q01DX009 (ip), vehicle: water, higher = longer survival): 90 % of control
T/C (endpoint: median survival time, dose: 0.15 mg/kg/injection, schedule: Q01DX009 (ip), vehicle: water, higher = longer survival): 112 % of control
T/C (endpoint: median survival time, dose: 0.3 mg/kg/injection, schedule: Q01DX009 (ip), vehicle: water, higher = longer survival): 96 % of control
T/C (endpoint: median survival time, dose: 0.6 mg/kg/injection, schedule: Q01DX009 (ip), vehicle: water, higher = longer survival): 100 % of control

CC(c1ccccc1)N1C(=O)CSC1=S (stereo not given)
T/C [4]: 89 % of control

O=NN(CCF)C(=O)NC1CCC(=O)NC1=O (stereo not given)
T/C (endpoint: median survival time, dose: 3.11 mg/kg/injection, schedule: Q01DX007 (ip), vehicle: Klucel (hydroxypropylcellulose) (HPC), higher = longer survival): 121 % of control
T/C (endpoint: median survival time, dose: 5.18 mg/kg/injection, schedule: Q01DX007 (ip), vehicle: Klucel (hydroxypropylcellulose) (HPC), higher = longer survival): 124 % of control
T/C (endpoint: median survival time, dose: 8.64 mg/kg/injection, schedule: Q01DX007 (ip), vehicle: Klucel (hydroxypropylcellulose) (HPC), higher = longer survival): 164 % of control

OCC1OC(n2cnc3c2NC=NC[C@H]3O)CC1O (stereo not given in full)
T/C (endpoint: median survival time, dose: 0.05 mg/kg/injection, schedule: Q03HX024 (ip), vehicle: saline, higher = longer survival): 90 % of control
T/C (endpoint: median survival time, dose: 0.1 mg/kg/injection, schedule: Q03HX024 (ip), vehicle: saline, higher = longer survival): 105 % of control

COC12C(COC(N)=O)C3=C(C(=O)C(C)=C(N)C3=O)N1CC1C2N1C (stereo not given)
T/C (endpoint: median survival time, dose: 1.0 mg/kg/injection, schedule: Q01DX009 (ip), vehicle: Klucel (hydroxypropylcellulose) (HPC), higher = longer survival): 106 % of control
T/C (endpoint: median survival time, dose: 2.0 mg/kg/injection, schedule: Q01DX009 (ip), vehicle: Klucel (hydroxypropylcellulose) (HPC), higher = longer survival): 91 % of control
T/C (endpoint: median survival time, dose: 8.0 mg/kg/injection, schedule: Q01DX009 (ip), vehicle: Klucel (hydroxypropylcellulose) (HPC), higher = longer survival): 109 % of control

CO[C@H]1C[C@](C)(O)Cc2cc3c(c(O)c21)C(=O)c1c(O)cc2c(c1C3=O)O[C@@H]1O[C@@]2(C)[C@H](O)[C@@H](N(C)C)[C@@H]1O
T/C (endpoint: median survival time, dose: 6.25 mg/kg/injection, schedule: Q01DX009 (ip), vehicle: other, higher = longer survival): 104 % of control
T/C (endpoint: median survival time, dose: 12.5 mg/kg/injection, schedule: Q01DX009 (ip), vehicle: other, higher = longer survival): 95 % of control

C=CCN1/C(=C/C=C\c2sc3ccccc3[n+]2CC=C)Sc2ccccc21
T/C (endpoint: median survival time, dose: 125.0 micrograms/kg/injection, schedule: Q01DX009 (ip), vehicle: suspension in saline, higher = longer survival): 121 % of control

CO[C@H](C(=O)[C@@H](O)[C@@H](C)O)[C@@H]1Cc2cc3cc(OC4CC(OC5CC(O)C(O)C(C)O5)C(O)C(C)O4)c(C)c(O)c3c(O)c2C(=O)[C@H]1OC1CC(OC2CC(OC3CC(C)(O)C(O)C(C)O3)C(O)C(C)O2)C(O)C(C)O1 (stereo not given in full)
T/C (endpoint: median survival time, dose: 0.12 mg/kg/injection, schedule: Q01DX009 (ip), vehicle: saline, higher = longer survival): 100 % of control
T/C (endpoint: median survival time, dose: 0.25 mg/kg/injection, schedule: Q01DX009 (ip), vehicle: saline, higher = longer survival): 114 % of control
T/C (endpoint: median survival time, dose: 0.5 mg/kg/injection, schedule: Q01DX009 (ip), vehicle: saline, higher = longer survival): 116 % of control
T/C (endpoint: median survival time, dose: 1.0 mg/kg/injection, schedule: Q01DX009 (ip), vehicle: saline, higher = longer survival): 118 % of control
T/C (endpoint: median survival time, dose: 3.8 micrograms/kg/injection, schedule: Q01DX009 (ip), vehicle: water, higher = longer survival): 104 % of control
T/C (endpoint: median survival time, dose: 7.5 micrograms/kg/injection, schedule: Q01DX009 (ip), vehicle: water, higher = longer survival): 107 % of control
T/C (endpoint: median survival time, dose: 15.0 micrograms/kg/injection, schedule: Q01DX009 (ip), vehicle: water, higher = longer survival): 101 % of control
T/C (endpoint: median survival time, dose: 30.0 micrograms/kg/injection, schedule: Q01DX009 (ip), vehicle: water, higher = longer survival): 114 % of control
T/C (endpoint: median survival time, dose: 60.0 micrograms/kg/injection, schedule: Q01DX009 (ip), vehicle: water, higher = longer survival): 93 % of control
T/C (endpoint: median survival time, dose: 120.0 micrograms/kg/injection, schedule: Q01DX009 (ip), vehicle: water, higher = longer survival): 91 % of control
T/C (endpoint: median survival time, dose: 250.0 micrograms/kg/injection, schedule: Q01DX009 (ip), vehicle: water, higher = longer survival): 86 % of control

O=P1(N(CCCl)CCCl)NCCCO1 (stereo not given)
T/C (endpoint: median survival time, dose: 15.0 mg/kg/injection, schedule: Q04DX003 (ip), vehicle: saline, higher = longer survival): 111 % of control
T/C (endpoint: median survival time, dose: 30.0 mg/kg/injection, schedule: Q04DX003 (ip), vehicle: saline, higher = longer survival): 123 % of control
T/C (endpoint: median survival time, dose: 60.0 mg/kg/injection, schedule: Q04DX003 (ip), vehicle: saline, higher = longer survival): 171 % of control
T/C (endpoint: median survival time, dose: 120.0 mg/kg/injection, schedule: Q04DX003 (ip), vehicle: saline, higher = longer survival): 193 % of control
T/C (endpoint: median survival time, dose: 200.0 mg/kg/injection, schedule: Q01DX001 (ip), vehicle: saline, higher = longer survival): 158 % of control
T/C (endpoint: median tumor weight (est.), dose: 50.0 mg/kg/injection, schedule: Q01DX009 (ip), vehicle: saline, higher = larger tumour): 19 % of control and 40 % of control
T/C (endpoint: median tumor weight (est.), dose: 100.0 mg/kg/injection, schedule: Q01DX009 (ip), vehicle: saline, higher = larger tumour): 19 % of control

CC1(C)N=C(N)N=C(N)N1c1ccc(OCCOc2ccc(S(=O)(=O)F)cc2)c(Cl)c1
T/C (endpoint: median survival time, dose: 12.5 mg/kg/injection, schedule: Q04DX003 (ip), vehicle: saline, higher = longer survival): 104 % of control
T/C (endpoint: median survival time, dose: 25.0 mg/kg/injection, schedule: Q04DX003 (ip), vehicle: saline, higher = longer survival): 104 % of control
T/C (endpoint: median survival time, dose: 100.0 mg/kg/injection, schedule: Q04DX003 (ip), vehicle: saline, higher = longer survival): 109 % of control

COC(=O)C(N)CCCCNc1ccc2c(cc1=O)C(NC(C)=O)CCc1cc(OC)c(OC)c(OC)c1-2 (stereo not given)
T/C (endpoint: median survival time, dose: 53.0 mg/kg/injection, schedule: Q01DX009 (ip), vehicle: saline, higher = longer survival): 118 % of control
T/C (endpoint: median survival time, dose: 80.0 mg/kg/injection, schedule: Q01DX009 (ip), vehicle: saline, higher = longer survival): 90 % of control
T/C (endpoint: median survival time, dose: 120.0 mg/kg/injection, schedule: Q01DX009 (ip), vehicle: saline, higher = longer survival): 106 % of control
T/C (endpoint: median survival time, dose: 180.0 mg/kg/injection, schedule: Q01DX009 (ip), vehicle: saline, higher = longer survival): 90 % of control

CNNCc1ccc(C(=O)NC(C)C)cc1
T/C [1]: 102 % of control
T/C [2]: 113 % of control
T/C [3]: 102 % of control and 115 % of control
T/C (endpoint: median survival time, dose: 320.0 mg/kg/injection, schedule: Q01DX009 (ip), vehicle: Klucel (hydroxypropylcellulose) (HPC), higher = longer survival): 95 % of control

O=CC(NC(=O)N(CCCl)N=O)C(O)C(O)C(O)CO (stereo not given)
T/C (endpoint: median survival time, dose: 3.0 mg/kg/injection, schedule: Q01DX009 (ip), vehicle: saline, higher = longer survival): 115 % of control
T/C (endpoint: median survival time, dose: 3.3 mg/kg/injection, schedule: Q01DX009 (ip), vehicle: saline, higher = longer survival): 115 % of control
T/C (endpoint: median survival time, dose: 4.5 mg/kg/injection, schedule: Q01DX009 (ip), vehicle: saline, higher = longer survival): 112 % of control
T/C (endpoint: median survival time, dose: 4.9 mg/kg/injection, schedule: Q01DX009 (ip), vehicle: saline, higher = longer survival): 102 % of control
T/C (endpoint: median survival time, dose: 6.8 mg/kg/injection, schedule: Q01DX009 (ip), vehicle: saline, higher = longer survival): 89 % of control
T/C (endpoint: median survival time, dose: 7.4 mg/kg/injection, schedule: Q01DX009 (ip), vehicle: saline, higher = longer survival): 100 % of control
T/C (endpoint: median survival time, dose: 10.0 mg/kg/injection, schedule: Q01DX009 (ip), vehicle: saline, higher = longer survival): 122 % of control
T/C (endpoint: median survival time, dose: 12.0 mg/kg/injection, schedule: Q04DX003 (ip), vehicle: saline, higher = longer survival): 112 % of control
T/C (endpoint: median survival time, dose: 13.0 mg/kg/injection, schedule: Q01DX001 (ip), vehicle: saline, higher = longer survival): 118 % of control
T/C (endpoint: median survival time, dose: 16.0 mg/kg/injection, schedule: Q01DX001 (ip), vehicle: saline, higher = longer survival): 112 % of control
T/C (endpoint: median survival time, dose: 18.0 mg/kg/injection, schedule: Q04DX003 (ip), vehicle: saline, higher = longer survival): 106 % of control
T/C (endpoint: median survival time, dose: 20.0 mg/kg/injection, schedule: Q01DX001 (ip), vehicle: saline, higher = longer survival): 96 % of control
T/C (endpoint: median survival time, dose: 24.0 mg/kg/injection, schedule: Q01DX001 (ip), vehicle: saline, higher = longer survival): 102 % of control
T/C (endpoint: median survival time, dose: 27.0 mg/kg/injection, schedule: Q04DX003 (ip), vehicle: saline, higher = longer survival): 108 % of control
T/C (endpoint: median survival time, dose: 36.0 mg/kg/injection, schedule: Q01DX001 (ip), vehicle: saline, higher = longer survival): 112 % of control
